Results published in patent US10016494B2, “Antigenic epitopes from EBV gp350/220 and uses thereof” (VALORISATION-HSJ, LIMITED PARTNERSHIP, priority 2014, dated 2018).

Assays:
[1] = test system: P3HR1 virus super-infection of Raji cells; assay: EBV antibody neutralization assay; format: cell-based, Epstein-Barr virus; details: FIG. 2B, log10 dilutions of 0.01 to 10 μg/ml
Procedure: Antibody neutralization potency was measured as the inhibition of EBV early antigen (EA) expression upon super-infection of Raji cells by P3HR1 virus (33). Mixtures of concentrated virus (2×10^4 EA-inducing units) and serial dilutions of purified antibody were incubated in a final volume of 0.1 ml for 60 min at 37° C. prior to the addition of 5×10^4 Raji cells. The Raji cell-virus mixture was further incubated for 60 min at 37° C. followed by resuspension in RPMI medium and a 2-day incubation at 37° C. The number of Raji cells expressing EA after cell culture was measured by immunofluorescence, and relative antibody neutralization potency per μg of antibody was calculated.

[2] = test system: 72A1 antibody recognition of gp350 protein; assay: Competition ELISA: 72A1 pre-incubated with gp350 mimetic peptides in solution, then tested for binding to gp350; set-up: species or system Epstein-Barr virus; details: for inhibition of 72A1 antibody recognition of gp350 protein: FIG. 4B, peptide allowed to interact with 72A1 in solution
Procedure: Whole cell ELISA was performed using CEM cells or CEM cells expressing gp350. The cells were washed with PBS, suspended at 1×10^6 cells/mL in PBS and 40 μL aliquots were added to each ELISA plate well. Plates were vacuum-dried prior to cell fixation with cold methanol. Plates were washed with PBS and wells blocked in 1% BSA:PBS prior to a 1 h exposure to monoclonal antibody or monoclonal antibody that was pre-incubated for 2 or more hours with gp350 mimetic peptides. Bound monoclonal antibodies were detected using biotin-conjugated goat anti-mouse IgG, HRP-conjugated streptavidin as outlined above.
Although peptide 3 contained the amino acid sequence EID shown by mutation to result in a loss of 72A1 binding (31), the lack of noted binding by peptide 3 may have been due to inappropriate adsorption to the ELISA plate that interfered with antibody binding. To avoid potential ELISA plate interference, gp350 mimetic peptides were allowed to interact with 72A1 antibody in solution, and later the antibody was tested for its ability to bind to native gp350 protein.

[3] = test system: anti-gp350 monoclonal antibody 72A1; assay: Peptide ELISA: 72A1 antibody binding to plate-coated gp350 mimetic peptides; set-up: species or system murine; details: for binding to the 72A1 antibody: FIG. 4A, peptide coated on ELISA plate; for Notes: reactivity with the 72A1 monoclonal antibody: Table III
Procedure: (§1) Gp350 mimetic peptides that were synthesized and HPLC purified to >70% (Elim Biopharmaceuticals®, Hayward, Calif.) were suspended at 2.5 μg/mL in 0.1M carbonate buffer pH 9 prior to their overnight incubation at 4° C. as 100 μL aliquots in a 96 well ELISA plate (Ultident®, St. Laurent, QC). Peptide-coated plates were washed 4× with PBS:0.05% Tween-20®, blocked with 1% BSA:PBS and incubated for a minimum of 2 h at room temperature (RT) with anti-gp350 monoclonal antibody 72A1, or the isotype-matched, background-control anti-LMP1 monoclonal antibody S-12 and 1:100 dilutions of commercial intravenous gamma globulin (IVIG) (18). Bound monoclonal antibodies were detected using biotin-conjugated goat anti-mouse IgG, biotin-conjugated anti-human IgG and horseradish peroxidase (HRP)-conjugated streptavidin (Jackson Immunoresearch Laboratories®, West Grove, Pa.) in conjunction with 3,3′,5,5′-Tetramethylbenzidine substrate (TMB solution, Bioshop®, Burlington ON). HRP enzyme activity was stopped with an equal volume of 1N HCl and wells read at 450nm.

[4] = test system: 72A1 recognition of gp350; assay: Sera from peptide-immunized mice blocking biotinylated-72A1 binding to gp350; format: in vivo, Balb/C female mice; details: FIG. 7C, pooled serum from peptide immunized mice, 1:50 dilution
Procedure: Histogram of biotinylated-72A1 binding to gp350 protein that was pre-exposed to mouse preimmune (preimm) serum, pooled serum from peptide immunized mice (1:50 dilution), or 1 μg/ml 72A1, or 0.5 mg/ml BSA. Average OD±SEM was derived from three separate experiments. P-values≤0.05 are indicated (*).
(§2) Balb/C female mice were immunized intraperitoneally with 100 μg of keyhole limpet hemocyanin (KLH)-coupled with gp350 mimetic peptide (Sigma Conjugation Kit) emulsified in Sigma Adjuvant System (Sigma-Aldrich). Mice were re-injected every 21 days and blood was drawn 14 days after the second injection. Following the third immunization, IgG levels of peptide reactivity were measured by ELISA.
(§3) Balb/C female mice were immunized intraperitoneally with gp350 mimetic peptides as described in Example 1 above. Following the third immunization, IgG levels of peptide reactivity were measured by ELISA. All mice generated antibodies to their respective peptides with average antibody concentrations (pg/ml) of 97±46 SEM, 122±67 and 981±577 for p1, p2 and p3, respectively (FIG. 7A).

native gp350 = assay: Peptide immunization of mice: serum recognition of native gp350; format: in vivo, Balb/C female mice; details: FIG. 7B, same mice sera, ± SEM
Procedure: as §2, §3

[5] = test system: human IgG (IVIG, human EBV immune serum); assay: Peptide ELISA with commercial intravenous gamma globulin (IVIG); format: binding; details: FIG. 5, thirty-nine lots of IVIG, ± SD
Procedure: as §1
Although p2 was recognized by the murine monoclonal antibody 72A1 and was capable of generating antibodies that recognized the gp350 neutralizing epitope in mice, it is unknown whether EBV-positive human sera would recognize this gp350 mimetic peptide. The determination of human IgG reactivity against each of the three peptides could serve as a surrogate indicator of whether the gp350 mimetic peptides would be immunogenic or capable of generating an anti-gp350 antibody response. […] This was followed by p1 at levels of 1.83±0.07 pg/ml and by p3 with antibody levels of 1.7±0.06 pg/ml.

[6] = Peptide immunization of mice: anti-peptide IgG by ELISA; format: in vivo, Balb/C female mice; details: FIG. 7A, KLH-coupled peptide 100 μg i.p., after third immunization, ± SEM
Procedure: as §2, §3

[7] = FIG. 4C, altered domain compared to peptide 2

Substance	binding to the 72A1 antibody [3]	average antibody concentration recognizing native gp350 (native gp350) [pg/mL]	anti-peptide antibody levels in IVIG [5] [pg/mL]	average anti-peptide antibody concentration [6] [pg/mL]	other results
72A1 antibody: well-known mouse monoclonal antibody (IgG1 isotype), EBV gp350 neutralizing, commercially available					block of P3HR1 EBV super-infection of Raji cells [1]: block P3HR1 virus superinfection of Raji cells
AAAAAAAAQNPVYLIPETVPYIKWDN (SEQ ID NO: 33) (Epstein-Barr virus) [Peptide 2.2, Ala substitution of domain 1 of peptide 2]					reduction in recognition of p2 by 72A1 antibody [2, 7]: 50%; binding activity compared to parental peptide 2 ([3]; FIG. 6B, peptide 2 = 100%): 56%
DDRTLQLAAAPVAALIPAVVPAIAWAA (SEQ ID NO: 34) (Epstein-Barr virus) [Peptide 2.3, Domain 1-LA-altered Domain 2]					recognition of p2 by 72A1 antibody after domain alteration [2, 7]: abolished recognition; binding to the 72A1 monoclonal antibody ([3]; FIGS. 6A and 6B, alanine substitutions): did not bind
DDRTLQLAQNPVYLIPETVPYIKWDN (SEQ ID NO: 4) (Epstein-Barr virus) [Peptide 2]	strongly bound	1.3 ± 0.9	2.16 ± 0.08	122 ± 67	inhibition of 72A1 recognition of gp350 by antisera [4]: 38%; inhibition of 72A1 antibody recognition of gp350 protein [2]: 78%
EEKSAEAAQQPADAAPDSAPDAKMDQ (SEQ ID NO: 32) (Epstein-Barr virus) [Peptide 2.1, 72a1 positive mimeotope]					Notes: reactivity with the 72A1 monoclonal antibody [3]: 72a1 positive
GSAKPGNGSYFASVKTEMLGNEID (SEQ ID NO: 27) (Epstein-Barr virus) [Peptide 3, gp350 mimetic peptide encompassing the central area of the purported gp350 neutralizing domain]	did not bind	4.1 ± 2.4	1.7 ± 0.06	981 ± 577	inhibition of 72A1 recognition of gp350 by antisera [4]: 23%; inhibition of 72A1 antibody recognition of gp350 protein [2]: 8%
SKAPESTTTSPTLNTTGFADY (SEQ ID NO: 31) (Epstein-Barr virus) [Peptide 1, reference compound]	did not bind	0.015 ± 0.01	1.83 ± 0.07	97 ± 46	ELISA activity with 72A1 ([3]; FIG. 6A, value subtracted from the peptide 2 series before plotting): 0.355 OD; Notes: reactivity with the 72A1 monoclonal antibody [3]: 72A1 non-reactive
